These results are taken from patent US12150920B2, “Topical pharmaceutical composition in the form of aqueous gel comprising at least amitriptyline” (AlgoTherapeutix, priority 2020, dated 2024).

The data set can be described thus: Ex vivo percutaneous absorption of amitriptyline on human skin samples in a Frantz cell. The data set is classed as in vitro ADME. The note with it: topical application of compositions A and B. On the procedure: Comparative ex vivo study of the percutaneous absorption of amitriptyline in a formulation A in the form of an aqueous gel (invention) and a formulation B in the form of cream (comparative). Each of compositions A and B was applied to distinct samples of human skin. For each composition, the experiment was repeated 3 times with 3 skin samples from 3 different donors, giving 9 samples. The skin samples are placed in a Frantz cell and heated to a surface temperature of 32° C.±1° C. Composition A or B is spread homogenously with a spatula onto each skin sample at a rate of 10 mg per cell, corresponding to 5 mg/cm^2 skin. The skin samples are rinsed 16 hours after application. Each skin sample was placed using tweezers onto absorbent paper (dermis side down). The stratum corneum was removed using adhesive strips. After the removal of the stratum corneum the sample was perforated. The epidermis is then separated from the dermis. Each of them is placed in separate vials. Different samples were then extracted.

As for `CN(C)CCC=C1c2ccccc2CCc2ccccc21` [amitriptyline], the “Systemic passage of amitriptyline” value is reported as “less than 0.10 % of the administered dose”.
